In PMC7604895, “Identification of a Novel Substrate-Derived Spermine Oxidase Inhibitor” (Acta Naturae, 2020):

What was measured:
Type in all cases: biochemical
spermine oxidase (SMOX) [1] = biological target: T1, spermine oxidase (SMOX) (Homo sapiens, UniProt Q9NWM0); assay: luminol-HRP chemiluminescent H2O2 assay with purified SMOX, […] Spm substrate (positive control inhibitor)
T1 construct: human SMOX expressed from pET15b in E. coli BL21(DE3), polyhistidine tag removed by thrombin

spermine oxidase (SMOX) [2] = biological target: T1, spermine oxidase (SMOX); assay: substrate turnover by purified SMOX, luminol-HRP chemiluminescent H2O2 detection
spermine oxidase (SMOX) [3] = biological target: T1, spermine oxidase (SMOX); assay: luminol-HRP chemiluminescent H2O2 assay with purified SMOX, […] Spm substrate, […] min preincubation

T1 sequence (Q9NWM0 whole entry): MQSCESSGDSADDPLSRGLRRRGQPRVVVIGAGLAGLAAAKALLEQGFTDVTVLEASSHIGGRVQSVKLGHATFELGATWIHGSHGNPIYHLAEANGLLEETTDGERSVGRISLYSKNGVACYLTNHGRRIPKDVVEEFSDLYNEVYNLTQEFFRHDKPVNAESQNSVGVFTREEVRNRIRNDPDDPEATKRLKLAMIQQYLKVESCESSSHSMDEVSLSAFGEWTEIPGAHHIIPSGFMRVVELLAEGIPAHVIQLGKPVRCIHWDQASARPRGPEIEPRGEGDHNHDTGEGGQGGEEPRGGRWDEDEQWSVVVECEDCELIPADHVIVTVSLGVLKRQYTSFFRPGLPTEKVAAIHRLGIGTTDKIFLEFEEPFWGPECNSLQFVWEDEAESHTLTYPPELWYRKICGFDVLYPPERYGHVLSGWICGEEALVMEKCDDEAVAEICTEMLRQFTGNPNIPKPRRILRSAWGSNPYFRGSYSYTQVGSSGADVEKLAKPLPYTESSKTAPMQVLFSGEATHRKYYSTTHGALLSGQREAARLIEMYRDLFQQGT

C=C=CCNCCCCNCC=C=C [MDL72527, N1,N4-(bis(2,3-butadienyl)-1,4-butanediamine)]
IC50 (spermine oxidase (SMOX) [1]): 100 µM

NCCCNCCCCNCCCN [Spm, spermine]
substrate turnover by purified SMOX, luminol-HRP chemiluminescent H2O2 detection (spermine oxidase (SMOX) [2]): SMOX activity was measured using a chemiluminescent enzyme-based assay detecting the formation of H2O2 in the presence of Spm

C=C(CN)CNCCCCNCC(=C)CN [2,11-Met2-Spm, 1,12-diamino-2,11-bis(methylidene)-4,9-diazadodecane]
IC50 (spermine oxidase (SMOX) [3]): 169 µM
